Reference: patent US8415379B2, “Pyridines” (Hoffmann-La Roche Inc., priority 2009, dated 2013)

Target: T1, GABA A α5 (human receptors of composition α5β3γ2) (Homo sapiens, UniProt P18507+P31644)
T1 construct: expressed in transfected cells; host or cells: HEK293 cells, transiently transfected; membrane homogenates used
Assay: [3H]flumazenil competition binding assay, human GABA A α5β3γ2 receptors in HEK293 cells
Details: displacement of 0.5 nM [3H]flumazenil, HEK293 membranes, 1 hour at 4° C., means of two determinations, read-out: hKi GABA A α5
Description: The affinity of compounds at GABA A receptor subtypes was measured by competition for [^3H]flumazenil (85 Ci/mmol; Roche) binding to HEK293 cells expressing rat (stably transfected) or human (transiently transfected) receptors of composition α1β3γ2, α2β3γ2, α3β3γ2 and α5β3γ2.
Cell pellets were suspended in Krebs-tris buffer (4.8 mM KCl, 1.2 mM CaCl2, 1.2 mM MgCl2, 120 mM NaCl, 15 mM Tris; pH 7.5; binding assay buffer), homogenized by polytron for ca. 20 sec on ice and centrifuged for 60 min at 4° C. (50000 g; Sorvall, rotor: SM24=20000 rpm). The cell pellets were re-suspended in Krebs-tris buffer and homogenized by polytron for ca. 15 sec on ice. Protein was measured (Bradford method, Bio-Rad) and aliquots of 1 mL were prepared and stored at −80° C.
Radioligand binding assays were carried out in a volume of […] (96-well plates) which contained […] of cell membranes, [^3H]flumazenil at a concentration of 1 nM for α1, α2 and α3 subunits and 0.5 nM for α5 subunits and the test compound in the range of […]. Nonspecific binding was defined by 10^−5 M diazepam and typically represented less than 5% of the total binding. Assays were incubated to equilibrium for 1 hour at 4° C. and harvested onto GF/C uni-filters (Packard) by filtration using a Packard harvester and washing with ice-cold wash buffer (50 mM Tris; pH 7.5). After drying, filter-retained radioactivity was detected by liquid scintillation counting. Ki values were calculated using Excel-Fit (Microsoft) and are the means of two determinations.

| SMILES | Ki [nM] |
| --- | --- |
| Cn1cc(NC(=O)c2ccc(OCc3c(-c4ccc(F)cc4)noc3CO)cn2)cn1 [Example 35, 5-[3-(4-Fluoro-phenyl)-5-hydroxymethyl-isoxazol-4-ylmethoxy]-pyridine-2-carboxylic acid (1-methyl-1H-pyrazol-4-yl)-amide] | 3.4 |
| Cc1onc(-c2ccccn2)c1COc1ccc(C(=O)NC2CCOCC2)nc1 [Example 6, 5-(5-Methyl-3-pyridin-2-yl-isoxazol-4-ylmethoxy)-pyridine-2-carboxylic acid (tetrahydro-pyran-4-yl)-amide] | 4.8 |
| Cc1onc(-c2ccccn2)c1COc1ccc(C(=O)N2CCSCC2)nc1 [Example 17, [5-(5-Methyl-3-pyridin-2-yl-isoxazol-4-ylmethoxy)-pyridin-2-yl]-thiomorpholin-4-yl-methanone] | 32.9 |
| Cc1onc(-c2ccccc2)c1COc1ccc(C(=O)NN2CCOCC2)nc1 [Example 5, 5-(5-Methyl-3-phenyl-isoxazol-4-ylmethoxy)-pyridine-2-carboxylic acid morpholin-4-ylamide] | 17 |
| O=C(NN1CCOCC1)c1ccc(OCc2c(-c3ccc(F)cc3)noc2CO)cn1 [Example 39, 5-[3-(4-Fluoro-phenyl)-5-hydroxymethyl-isoxazol-4-ylmethoxy]-pyridine-2-carboxylic acid morpholin-4-ylamide] | 0.8 |
| Cc1onc(-c2ccccn2)c1COc1ccc(C(=O)NN2CCOCC2)nc1 [Example 9, 5-(5-Methyl-3-pyridin-2-yl-isoxazol-4-ylmethoxy)-pyridine-2-carboxylic acid morpholin-4-ylamide] | 4.4 |

Further lines, results first:

| Ki [nM] | SMILES |
| --- | --- |
| 10.2 | O=C(NCC(F)(F)F)c1ccc(OCc2c(-c3ccc(F)cc3)noc2CO)cn1 [Example 33, 5-[3-(4-Fluoro-phenyl)-5-hydroxymethyl-isoxazol-4-ylmethoxy]-pyridine-2-carboxylic acid (2,2,2-trifluoro-ethyl)-amide] |
| 7.8 | Cc1onc(-c2ccccn2)c1COc1ccc(C(=O)NCCO)nc1 [Example 14, 5-(5-Methyl-3-pyridin-2-yl-isoxazol-4-ylmethoxy)-pyridine-2-carboxylic acid (2-hydroxy-ethyl)-amide] |
| 4.6 | Cc1onc(-c2ccccn2)c1COc1ccc(C(=O)NCC(F)(F)F)nc1 [Example 13, 5-(5-Methyl-3-pyridin-2-yl-isoxazol-4-ylmethoxy)-pyridine-2-carboxylic acid (2,2,2-trifluoro-ethyl)-amide] |
| 4.2 | Cc1onc(-c2ccc(F)cn2)c1COc1ccc(C(=O)NCC(F)(F)F)nc1 [Example 28, 5-[3-(5-Fluoro-pyridin-2-yl)-5-methyl-isoxazol-4-ylmethoxy]-pyridine-2-carboxylic acid (2,2,2-trifluoro-ethyl)-amide] |
| 3.9 | Cc1onc(-c2ccc(F)cn2)c1COc1ccc(C(=O)NN2CCOCC2)nc1 [Example 25, 5-[3-(5-Fluoro-pyridin-2-yl)-5-methyl-isoxazol-4-ylmethoxy]-pyridine-2-carboxylic acid morpholin-4-ylamide] |
| 8.1 | CCC(CO)NC(=O)c1ccc(OCc2c(-c3ccccn3)noc2C)cn1 (racemic) [Example 20, Rac-5-(5-Methyl-3-pyridin-2-yl-isoxazol-4-ylmethoxy)-pyridine-2-carboxylic acid (1-hydroxymethyl-propyl)-amide] |
